Experimental data from ChEMBL document CHEMBL3286097, “Dual carbonic anhydrase/matrix metalloproteinase inhibitors incorporating bisphosphonic acid moieties targeting bone tumors” (Bioorg Med Chem Lett, 2014).
pIC50: −log10 of the molar value. Activity calls are given as the source filed them. The calls are words filed in the database; no cut-off is given here.

How the values were obtained:
Carbonic anhydrase 9 = Carbonic anhydrase 9 (Homo sapiens, UniProt Q16790)
Description: Inhibition of human recombinant carbonic anhydrase 9 pretreated for 15 mins by stopped flow CO2 hydrase assay

Carbonic anhydrase 1 [1] = target: T1, Carbonic anhydrase 1 (Homo sapiens, UniProt P00915)
Target sequence in this assay (P00915 whole entry): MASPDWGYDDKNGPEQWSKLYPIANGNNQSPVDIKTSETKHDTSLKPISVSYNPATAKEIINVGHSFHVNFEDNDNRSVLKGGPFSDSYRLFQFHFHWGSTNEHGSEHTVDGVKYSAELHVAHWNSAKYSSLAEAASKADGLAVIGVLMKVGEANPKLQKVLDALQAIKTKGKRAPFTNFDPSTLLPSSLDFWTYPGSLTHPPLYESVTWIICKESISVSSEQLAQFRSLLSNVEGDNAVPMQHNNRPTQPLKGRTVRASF
Description: Inhibition of human recombinant carbonic anhydrase 1 pretreated for 15 mins by stopped flow CO2 hydrase assay

Carbonic anhydrase 2 = Carbonic anhydrase 2 (Homo sapiens, UniProt P00918)
Description: Inhibition of human recombinant carbonic anhydrase 2 pretreated for 15 mins by stopped flow CO2 hydrase assay

Carbonic anhydrase 12 = Carbonic anhydrase 12 (Homo sapiens, UniProt O43570)
Carbonic anhydrase 12, sequence (O43570 whole entry): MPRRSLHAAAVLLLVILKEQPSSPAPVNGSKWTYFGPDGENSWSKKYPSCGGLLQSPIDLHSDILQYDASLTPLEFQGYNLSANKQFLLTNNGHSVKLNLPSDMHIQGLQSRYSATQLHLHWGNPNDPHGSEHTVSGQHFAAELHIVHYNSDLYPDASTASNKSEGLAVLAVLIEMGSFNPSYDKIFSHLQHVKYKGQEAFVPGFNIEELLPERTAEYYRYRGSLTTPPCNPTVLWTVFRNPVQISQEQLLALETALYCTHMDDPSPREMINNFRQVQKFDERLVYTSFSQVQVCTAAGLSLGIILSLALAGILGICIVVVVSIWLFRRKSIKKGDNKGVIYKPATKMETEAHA
Description: Inhibition of human recombinant carbonic anhydrase 12 pretreated for 15 mins by stopped flow CO2 hydrase assay

Carbonic anhydrase 14 = Carbonic anhydrase 14 (Homo sapiens, UniProt Q9ULX7)
Carbonic anhydrase 14, sequence (Q9ULX7 whole entry): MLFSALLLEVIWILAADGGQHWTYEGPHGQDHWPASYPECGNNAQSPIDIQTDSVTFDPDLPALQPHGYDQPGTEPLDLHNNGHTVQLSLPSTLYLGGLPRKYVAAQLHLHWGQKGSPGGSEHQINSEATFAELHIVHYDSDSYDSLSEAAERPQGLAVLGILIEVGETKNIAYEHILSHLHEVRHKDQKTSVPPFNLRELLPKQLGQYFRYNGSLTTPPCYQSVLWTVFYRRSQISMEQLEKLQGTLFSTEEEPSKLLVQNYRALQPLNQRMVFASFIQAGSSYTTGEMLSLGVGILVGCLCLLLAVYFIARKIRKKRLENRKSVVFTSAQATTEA
Description: Inhibition of human recombinant carbonic anhydrase 14 pretreated for 15 mins by stopped flow CO2 hydrase assay

[2] = target: 72 kDa type IV collagenase (Homo sapiens, UniProt P08253)
72 kDa type IV collagenase, sequence (P08253 whole entry): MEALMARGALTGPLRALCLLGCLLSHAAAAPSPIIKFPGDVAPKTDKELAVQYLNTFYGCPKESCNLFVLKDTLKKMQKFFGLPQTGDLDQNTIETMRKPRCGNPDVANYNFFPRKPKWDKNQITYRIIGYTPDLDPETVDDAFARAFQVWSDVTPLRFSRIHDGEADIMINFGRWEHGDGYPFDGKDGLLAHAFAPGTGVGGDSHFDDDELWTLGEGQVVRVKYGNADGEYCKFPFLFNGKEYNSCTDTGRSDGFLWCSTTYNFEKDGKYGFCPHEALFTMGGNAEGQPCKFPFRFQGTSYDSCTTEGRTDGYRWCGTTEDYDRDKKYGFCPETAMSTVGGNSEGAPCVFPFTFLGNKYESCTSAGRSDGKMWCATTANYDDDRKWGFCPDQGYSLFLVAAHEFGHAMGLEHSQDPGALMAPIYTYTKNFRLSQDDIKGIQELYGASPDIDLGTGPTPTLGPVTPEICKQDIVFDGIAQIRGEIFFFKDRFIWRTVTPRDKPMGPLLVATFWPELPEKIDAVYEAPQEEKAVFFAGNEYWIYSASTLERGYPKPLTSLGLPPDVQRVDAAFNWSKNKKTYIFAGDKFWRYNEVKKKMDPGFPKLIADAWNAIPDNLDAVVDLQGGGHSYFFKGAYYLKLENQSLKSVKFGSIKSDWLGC

Carbonic anhydrase 1 [3] = target: T1, Carbonic anhydrase 1; experiment: Activation of human recombinant carbonic anhydrase 1 pretreated for 15 mins by stopped flow CO2 hydrase assay
Target sequence in this assay (P00915 2-261 limits assumed): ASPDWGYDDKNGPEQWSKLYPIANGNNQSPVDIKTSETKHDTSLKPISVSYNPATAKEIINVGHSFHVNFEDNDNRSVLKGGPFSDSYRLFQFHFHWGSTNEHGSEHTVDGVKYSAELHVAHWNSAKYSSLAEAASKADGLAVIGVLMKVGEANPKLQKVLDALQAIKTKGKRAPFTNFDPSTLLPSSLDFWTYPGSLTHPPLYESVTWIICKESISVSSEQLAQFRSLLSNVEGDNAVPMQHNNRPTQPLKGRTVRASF

J774 = experiment: Cytotoxicity against mouse J774 cells assessed as reduction in cell viability; type: functional, cell-based

pIC50 (Carbonic anhydrase 9) | pIC50 (Carbonic anhydrase 1 [1]) | pIC50 (Carbonic anhydrase 2) | pIC50 (Carbonic anhydrase 12) | pIC50 (Carbonic anhydrase 14) | pIC50 [2] | Activity (Carbonic anhydrase 1 [3]) | Structure (SMILES) | pIC50 (J774)
7.02 | < 5.00 | 5.21 | 6.33 | 5.18 | 5.02 |  | O=P(O)(O)C(NS(=O)(=O)c1ccc(Cl)cc1)P(=O)(O)O | 
7.11 | < 5.00 | 5.74 | 7.04 | 7.04 | 5.31 |  | O=[N+]([O-])c1ccc(S(=O)(=O)NC(P(=O)(O)O)P(=O)(O)O)cc1 | 
3.07 |  | 2.90 |  |  | 4.31 | Active | O=P(O)(O)CP(=O)(O)O [MEDRONIC ACID] | 
7.08 | 7.39 | 7.15 | 7.12 | 7.15 | 6.96 |  | COc1ccc(-c2ccc(S(=O)(=O)NC(P(=O)(O)O)P(=O)(O)O)cc2)cc1 | 4.92
< 5.00 | < 5.00 | < 5.00 | 6.65 | 5.22 | 4.28 |  | O=P(O)(O)C(P(=O)(O)O)S(=O)(=O)c1ccc(Br)cc1 | 
6.22 | 5.04 | 7.15 | 7.19 | 7.09 | 6.72 |  | O=[N+]([O-])c1ccc(-c2ccc(S(=O)(=O)NC(P(=O)(O)O)P(=O)(O)O)cc2)cc1 | 4.49
6.63 | < 5.00 | < 5.00 | 7.21 | 6.05 | 5.32 |  | O=P(O)(O)C(NS(=O)(=O)c1ccc(Br)cc1)P(=O)(O)O | 
6.46 | 5.17 | 5.85 | 6.41 | 6.14 |  |  | O=P(O)(O)C(NS(=O)(=O)c1ccc(-c2ccccc2)cc1)P(=O)(O)O | 5.31
5.57 | < 5.00 | 5.42 | 6.10 | < 5.00 | 4.80 |  | O=[N+]([O-])c1cccc(S(=O)(=O)NC(P(=O)(O)O)P(=O)(O)O)c1 | 
< 5.00 | < 5.00 | < 5.00 | 6.56 | 5.22 | 4.52 |  | O=C(NC(P(=O)(O)O)P(=O)(O)O)c1ccc(Br)cc1 | 
7.05 | < 5.00 | < 5.00 | 6.42 | 6.29 | 4.72 |  | COc1ccc(S(=O)(=O)NC(P(=O)(O)O)P(=O)(O)O)cc1 | 
6.40 | < 5.00 | < 4.00 | 6.07 | 5.48 | 4.80 |  | O=P(O)(O)C(NS(=O)(=O)c1ccccc1)P(=O)(O)O | 
6.70 | < 5.00 | < 4.00 | 6.34 | 6.27 | 4.74 |  | Cc1ccc(S(=O)(=O)NC(P(=O)(O)O)P(=O)(O)O)cc1 | 
6.22 | 5.21 | 6.30 | 7.06 | 6.23 | 6.64 |  | O=P(O)(O)C(NS(=O)(=O)c1ccc(-c2cccs2)cc1)P(=O)(O)O | 4.92
5.21 | 5.76 | 5.58 | 6.32 | 5.61 | 7.43 |  | O=P(O)(O)C(NS(=O)(=O)c1ccc(-c2ccc(Cl)cc2)cc1)P(=O)(O)O | 5.77

Structure (SMILES) | pIC50 (Carbonic anhydrase 9) | pIC50 (Carbonic anhydrase 1 [1]) | pIC50 (Carbonic anhydrase 2) | pIC50 (Carbonic anhydrase 12) | pIC50 (Carbonic anhydrase 14) | pIC50 [2] | Activity (Carbonic anhydrase 1 [3]) | pIC50 (J774)
O=P(O)(O)C(O)(Cn1ccnc1)P(=O)(O)O [ZOLEDRONIC ACID] |  | < 5.00 |  |  |  |  |  | 5.11
